Experiments:
SNL rats = experiment: Thermal withdrawal (Hargreaves) in spinal nerve ligation model; format: in vivo, rat
Description: (§1) (A) L5/L6 spinal nerve ligation (SNL) was performed as described by Kim and Chung (Pain, 50,355-363(1992)). Animals (mice or rats) were anesthetized with halothane. An incision was made lateral to the lumbar spine. The right L5 and L6 spinal nerves were isolated and tightly ligated distal to the dorsal root ganglion. The incision was closed, and animals were allowed to recover for 10 days. Sham-operated animals were prepared in an identical fashion except that the spinal nerves were not ligated.
(§2) (B) The method of Hargreaves et al. (Pain, 32, 77-88 (1988)) was used to measure the thermal withdrawal latency in SNL rats. Animals were acclimated within Plexiglas enclosures on a clear glass plate maintained at 30° C. A radiant heat source (high-intensity projector lamp) was focused onto the plantar surface of the paw. When the paw was withdrawn, a motion detector halted the stimulus and a timer. A maximal cut-off of 40 sec for rats and 30 sec for mice was used to prevent tissue damage. Differences in responses between groups were tested by using the standard ANOVA statistical test followed by post hoc testing with Student's t test with Bonferroni's correction. Significance was defined as P<0.05.
Thermal withdrawal response was measured 15, 30, 45, 60, 90 and 120 minutes after i.p. administration of ganaxolone (at 1 mg/kg, 3 mg/kg, 6 mg/kg or 10 mg/kg). Table 3 provides the resulting measurement of thermal withdrawal in groups of five rats per dosage level.

[1] = system: chronic constriction injury (CCI) of the sciatic nerve, rats; experiment: Cold allodynia (acetone application) in chronic constriction injury model; format: in vivo, rat; settings: for Average time to withdrawal (s.e.m.): CCI rats
Description: Unilateral sciatic nerve injury was produced under deep anesthesia with i.p injection of sodium pentobarbital (Mebumal, 60 mg/kg), as described by Bennett and Xie (Pain, 33, 87-107(1988)). The common sciatic nerve was exposed and freed for about 10 mm at mid-thigh level. Four ligatures (Ethicon, 4.0 plain gut) were tied loosely around the nerve with about 1-mm spacing creating a chronic constriction injury (CCl), and the incision was closed.
Brisk foot withdrawal in response to acetone application was measured based on the method described by Choi et al. The acetone bubble was gently brought in touch with the plantar surface around the center, and the acetone quickly spread over the central part of the plantar surface of the foot. Applications were made five times (once every 5 min) to each paw. The score for each application was recorded as follows: foot withdrawal was scored as positive (1) and lack of withdrawal as negative (O). The total score (0 to 5) was taken as index for cold sensitivity of the foot […]. This approximates pain from a non-noxious stimulus, i.e. allodynia.
Cold allodynia response was measured 15, 30, 45, 60, 90 and 120 minutes after i.p. administration of ganaxolone (at 1 mg/kg, 3 mg/kg or 10 mg/kg) as well as prior to administration of the neurosteroid and prior to infliction of the neural injury. Table 1 provides the resulting measurement of cold allodynia response in groups of six rats per dosage level. The abbreviation “s.e.m.” means standard error mean.

migraine = settings: phase 2 clinical trial for migraine; cited from earlier work
[2] = system: L5/L6 spinal nerve ligation (SNL) rats; experiment: Tactile allodynia (von Frey) in spinal nerve ligation model; format: in vivo, rat
Description: as §1
The protocol was repeated until three changes in behavior were determined. The maximal cut-off size values used were 15 g for rats and 3.5 g for mice. The 50% paw withdrawal threshold was determined as 10Xf+kδ/10,000, where Xf=the value of the last von Frey filament used, k=Dixon value for the positive/negative pattern, and δ=the logarithmic difference between stimuli.
Tactile allodynia response was measured 15, 30, 45, 60, 90 and 120 minutes after i.p. administration of ganaxolone (at 1 mg/kg, 3 mg/kg, 6 mg/kg or 10 mg/kg). Table 2 provides the resulting measurement of tactile allodynia response in groups of five rats per dosage level.

[3] = system: rats receiving sham surgery; experiment: Thermal withdrawal in rats receiving sham surgery; format: in vivo, rat
Description: as §1, §2
The thermal withdrawal response was measured using the same protocol in rats receiving sham surgery. Table 4 provides the resulting measurement of thermal withdrawal in groups of five rats per dose level.

## CC(=O)[C@H]1CC[C@H]2[C@@H]3CC[C@H]4C[C@](C)(O)CC[C@]4(C)[C@H]3CC[C@]12C [ganaxolone, 3α-hydroxy-3β-methyl-5α-pregnan-20-one]
SNL rats; 1 mg/kg i.p., 15 min
  % Activity ± s.e.m. (thermal withdrawal): 24.59 ± 14.93%
SNL rats; 1 mg/kg i.p., 30 min
  % Activity ± s.e.m. (thermal withdrawal): 27.99 ± 17.71%
SNL rats; 1 mg/kg i.p., 45 min
  % Activity ± s.e.m. (thermal withdrawal): 3.98 ± 2.63%
SNL rats; 1 mg/kg i.p., 60 min
  % Activity ± s.e.m. (thermal withdrawal): 12.62 ± 8.69%
SNL rats; 1 mg/kg i.p., 90 min
  % Activity ± s.e.m. (thermal withdrawal): 17.40 ± 8.65%
SNL rats; 1 mg/kg i.p., 120 min
  % Activity ± s.e.m. (thermal withdrawal): 12.13 ± 9.25%
SNL rats; 3 mg/kg i.p., 15 min
  % Activity ± s.e.m. (thermal withdrawal): 37.15 ± 18.52%
SNL rats; 3 mg/kg i.p., 30 min
  % Activity ± s.e.m. (thermal withdrawal): 48.03 ± 22.45%
SNL rats; 3 mg/kg i.p., 45 min
  % Activity ± s.e.m. (thermal withdrawal): 19.84 ± 12.97%
SNL rats; 3 mg/kg i.p., 60 min
  % Activity ± s.e.m. (thermal withdrawal): 14.25 ± 10.87%
SNL rats; 3 mg/kg i.p., 90 min
  % Activity ± s.e.m. (thermal withdrawal): 4.18 ± 4.18%
SNL rats; 3 mg/kg i.p., 120 min
  % Activity ± s.e.m. (thermal withdrawal): 16.57 ± 11.76%
SNL rats; 6 mg/kg i.p., 15 min
  % Activity ± s.e.m. (thermal withdrawal): 79.03 ± 10.50%
SNL rats; 6 mg/kg i.p., 30 min
  % Activity ± s.e.m. (thermal withdrawal): 70.78 ± 11.53%
SNL rats; 6 mg/kg i.p., 45 min
  % Activity ± s.e.m. (thermal withdrawal): 43.72 ± 10.03%
SNL rats; 6 mg/kg i.p., 60 min
  % Activity ± s.e.m. (thermal withdrawal): 60.94 ± 10.27%
SNL rats; 6 mg/kg i.p., 90 min
  % Activity ± s.e.m. (thermal withdrawal): 42.83 ± 10.41%
SNL rats; 6 mg/kg i.p., 120 min
  % Activity ± s.e.m. (thermal withdrawal): 10.88 ± 6.34%
SNL rats; 10 mg/kg i.p., 15 min
  % Activity ± s.e.m. (thermal withdrawal): 70.07 ± 18.30%
SNL rats; 10 mg/kg i.p., 30 min
  % Activity ± s.e.m. (thermal withdrawal): 46.91 ± 14.25%
SNL rats; 10 mg/kg i.p., 45 min
  % Activity ± s.e.m. (thermal withdrawal): 47.36 ± 12.97%
SNL rats; 10 mg/kg i.p., 60 min
  % Activity ± s.e.m. (thermal withdrawal): 41.45 ± 10.90%
SNL rats; 10 mg/kg i.p., 90 min
  % Activity ± s.e.m. (thermal withdrawal): 33.58 ± 7.53%
SNL rats; 10 mg/kg i.p., 120 min
  % Activity ± s.e.m. (thermal withdrawal): 23.87 ± 4.35%
SNL rats; 10 mg/kg i.p., thermal withdrawal test
  Sedation: sedated four of the five rats for about one hour
[1]; 1 mg/kg i.p., 15 min after administration
  Average time to withdrawal (s.e.m.): 7.40 (1.02)
[1]; 1 mg/kg i.p., 30 min after administration
  Average time to withdrawal (s.e.m.): 6.12 (1.72)
[1]; 1 mg/kg i.p., 45 min after administration
  Average time to withdrawal (s.e.m.): 5.07 (1.14)
[1]; 1 mg/kg i.p., 60 min after administration
  Average time to withdrawal (s.e.m.): 2.59 (0.47)
[1]; 1 mg/kg i.p., 90 min after administration
  Average time to withdrawal (s.e.m.): 3.66 (0.47)
[1]; 1 mg/kg i.p., 120 min after administration
  Average time to withdrawal (s.e.m.): 3.16 (0.26)
[1]; 3 mg/kg i.p., 15 min after administration
  Average time to withdrawal (s.e.m.): 6.77
[1]; 3 mg/kg i.p., 30 min after administration
  Average time to withdrawal (s.e.m.): 13.03
[1]; 3 mg/kg i.p., 45 min after administration
  Average time to withdrawal (s.e.m.): 11.12
[1]; 3 mg/kg i.p., 60 min after administration
  Average time to withdrawal (s.e.m.): 11.69
[1]; 3 mg/kg i.p., 90 min after administration
  Average time to withdrawal (s.e.m.): 10.26
[1]; 3 mg/kg i.p., 120 min after administration
  Average time to withdrawal (s.e.m.): 10.30
[1]; 10 mg/kg i.p., 15 min after administration
  Average time to withdrawal (s.e.m.): 13.86
[1]; 10 mg/kg i.p., 30 min after administration
  Average time to withdrawal (s.e.m.): 15.35
[1]; 10 mg/kg i.p., 45 min after administration
  Average time to withdrawal (s.e.m.): 13.34
[1]; 10 mg/kg i.p., 60 min after administration
  Average time to withdrawal (s.e.m.): 10.38
[1]; 10 mg/kg i.p., 90 min after administration
  Average time to withdrawal (s.e.m.): 8.59
[1]; 10 mg/kg i.p., 120 min after administration
  Average time to withdrawal (s.e.m.): 8.87
[1]; summary of Table 1, CCI rats
  Effect on average time to withdrawal: increases the average time to withdrawal
migraine
  Benefit on time to pain relief: failed to show benefit
[2]; 1 mg/kg i.p., 15 min, SNL rats
  % Activity ± s.e.m. (tactile allodynia): 2.83 ± 2.83%
[2]; 1 mg/kg i.p., 30 min, SNL rats
  % Activity ± s.e.m. (tactile allodynia): 6.35 ± 3.38%
[2]; 1 mg/kg i.p., 45 min, SNL rats
  % Activity ± s.e.m. (tactile allodynia): 3.20 ± 2.21%
[2]; 1 mg/kg i.p., 60 min, SNL rats
  % Activity ± s.e.m. (tactile allodynia): 2.41 ± 1.53%
[2]; 1 mg/kg i.p., 90 min, SNL rats
  % Activity ± s.e.m. (tactile allodynia): 2.41 ± 1.53%
[2]; 1 mg/kg i.p., 120 min, SNL rats
  % Activity ± s.e.m. (tactile allodynia): 3.06 ± 3.06%
[2]; 3 mg/kg i.p., 15 min, SNL rats
  % Activity ± s.e.m. (tactile allodynia): 9.69 ± 4.56%
[2]; 3 mg/kg i.p., 30 min, SNL rats
  % Activity ± s.e.m. (tactile allodynia): 13.76 ± 6.54%
[2]; 3 mg/kg i.p., 45 min, SNL rats
  % Activity ± s.e.m. (tactile allodynia): 14.02 ± 5.14%
[2]; 3 mg/kg i.p., 60 min, SNL rats
  % Activity ± s.e.m. (tactile allodynia): 11.56 ± 3.01%
[2]; 3 mg/kg i.p., 90 min, SNL rats
  % Activity ± s.e.m. (tactile allodynia): 9.19 ± 2.67%
[2]; 3 mg/kg i.p., 120 min, SNL rats
  % Activity ± s.e.m. (tactile allodynia): 9.64 ± 1.63%
[2]; 6 mg/kg i.p., 15 min, SNL rats
  % Activity ± s.e.m. (tactile allodynia): 26.79 ± 9.34%
[2]; 6 mg/kg i.p., 30 min, SNL rats
  % Activity ± s.e.m. (tactile allodynia): 30.85 ± 6.77%
[2]; 6 mg/kg i.p., 45 min, SNL rats
  % Activity ± s.e.m. (tactile allodynia): 47.30 ± 14.99%
[2]; 6 mg/kg i.p., 60 min, SNL rats
  % Activity ± s.e.m. (tactile allodynia): 34.17 ± 15.78%
[2]; 6 mg/kg i.p., 90 min, SNL rats
  % Activity ± s.e.m. (tactile allodynia): 26.91 ± 15.45%
[2]; 6 mg/kg i.p., 120 min, SNL rats
  % Activity ± s.e.m. (tactile allodynia): 9.32 ± 2.85%
[2]; 10 mg/kg i.p., 15 min, SNL rats
  % Activity ± s.e.m. (tactile allodynia): 47.91 ± 21.86%
[2]; 10 mg/kg i.p., 30 min, SNL rats
  % Activity ± s.e.m. (tactile allodynia): 79.27 ± 18.71%
[2]; 10 mg/kg i.p., 45 min, SNL rats
  % Activity ± s.e.m. (tactile allodynia): 70.60 ± 18.42%
[2]; 10 mg/kg i.p., 60 min, SNL rats
  % Activity ± s.e.m. (tactile allodynia): 64.61 ± 18.63%
[2]; 10 mg/kg i.p., 90 min, SNL rats
  % Activity ± s.e.m. (tactile allodynia): 24.81 ± 9.53%
[2]; 10 mg/kg i.p., 120 min, SNL rats
  % Activity ± s.e.m. (tactile allodynia): 4.38 ± 1.81%
[2]; 10 mg/kg i.p., SNL rats, tactile allodynia test
  Sedation: sedated four of the five rats for about one hour
[2]; summary, SNL animals
  Effect on % Activity: increases the % Activity
[3]; 3 mg/kg, 15 min
  % Activity (thermal withdrawal): 11.87 ± 7.34%
[3]; 3 mg/kg, 30 min
  % Activity (thermal withdrawal): 3.25 ± 2.71%
[3]; 3 mg/kg, 45 min
  % Activity (thermal withdrawal): 3.62 ± 3.62%
[3]; 3 mg/kg, 60 min
  % Activity (thermal withdrawal): 1.98 ± 1.98%
[3]; 3 mg/kg, 90 min
  % Activity (thermal withdrawal): 2.22 ± 1.61%
[3]; 3 mg/kg, 120 min
  % Activity (thermal withdrawal): 1.39 ± 1.39%
[3]; 6 mg/kg, 15 min
  % Activity (thermal withdrawal): 0.00 ± 0.00%
[3]; 6 mg/kg, 30 min
  % Activity (thermal withdrawal): 0.00 ± 0.00%
[3]; 6 mg/kg, 45 min
  % Activity (thermal withdrawal): 3.98 ± 3.98%
[3]; 6 mg/kg, 60 min
  % Activity (thermal withdrawal): 2.95 ± 2.95%
[3]; 6 mg/kg, 90 min
  % Activity (thermal withdrawal): 1.73 ± 1.73%
[3]; 6 mg/kg, 120 min
  % Activity (thermal withdrawal): 0.41 ± 0.41%
[3]; 10 mg/kg, 15 min
  % Activity (thermal withdrawal): 24.54 ± 19.33%
[3]; 10 mg/kg, 30 min
  % Activity (thermal withdrawal): 22.60 ± 11.64%
[3]; 10 mg/kg, 45 min
  % Activity (thermal withdrawal): 8.03 ± 4.26%
[3]; 10 mg/kg, 60 min
  % Activity (thermal withdrawal): 0.65 ± 0.65%
[3]; 10 mg/kg, 90 min
  % Activity (thermal withdrawal): 0.28 ± 0.28%
[3]; 10 mg/kg, 120 min
  % Activity (thermal withdrawal): 0.02 ± 0.02%

From patent US20060009432A1, “Use of neurosteroids to treat neuropathic pain” (priority 2004, published 2006)
